From patent publication US10456407B2, “Combination therapy for treating cancer” (Epizyme, Inc., priority 2015, dated 2019)

Key:
Assay type in all cases: cell-based
[1] = system: RL cells; test: RT2 Glucocorticoid signaling PCR array, RL (Table 4e, printed RI) cell line; settings: 4 days, Cpd44 1 uM, Pred 10-fold below 4-day IC50, vs DMSO, B2M-normalized
Description: (§1) Expression levels of (A). Sestrin; (B). TNF and (C) GILZ normalized to DMSO controls for each cell line with the indicated single agent or combination.

[2] = system: SU-DHL4 cells; test: RT2 Glucocorticoid signaling PCR array, SU-DHL4 (SUDHL4) cell line (Table 4f); settings: SUDHL4, 4 days, vs DMSO
Description: as §1

[3] = system: RL cells; test: RT2 Glucocorticoid signaling PCR array, RL (Table 4e, printed RI) cell line; settings: 4 days, Cpd44 1 uM, Pred 10-fold below 4-day IC50, vs DMSO, B2M-normalized; remark: listed apart in the source
[4] = system: SU-DHL4 cells; test: RT2 Glucocorticoid signaling PCR array, SU-DHL4 (SUDHL4) cell line (Table 4f); settings: SUDHL4, 4 days, vs DMSO; remark: listed apart in the source

## C[C@]12C=CC(=O)C=C1CC[C@@H]1[C@@H]2[C@@H](O)C[C@@]2(C)[C@H]1CC[C@]2(O)C(=O)CO [Prednisolone, prednisolone]
[1]; ATF4 mRNA
  ΔΔCT: 1.364
[1]; CREB3 mRNA
  ΔΔCT: 0.762
[1]; CYB561 mRNA
  ΔΔCT: −1.663
[1]; PIK3R1 mRNA
  ΔΔCT: 0.974
[1]; POU2F1 mRNA
  ΔΔCT: 1.130
[1]; SESN1 mRNA
  ΔΔCT: −4.062
[1]; SLC19A2 mRNA
  ΔΔCT: 0.047
[1]; ZHX3 mRNA
  ΔΔCT: 0.168
[2]
  ΔΔCT, BCL6: −0.793
  ΔΔCT, CEBPB: 0.528
  ΔΔCT, DDIT4: −1.931
  ΔΔCT, DUSP1: −1.093
  ΔΔCT, NFKBIA: −0.710
  ΔΔCT, PDP1: −0.521
  ΔΔCT, POU2F2: −0.675
  ΔΔCT, RASA3: −0.723
  ΔΔCT, SPHK1: 0.331
  ΔΔCT, STAT5A: −0.389
  ΔΔCT, TNF: −2.845
  ΔΔCT, VDR: −0.996
  ΔΔCT, VLDLR: 1.191
  ΔΔCT, ZNF281: −0.739
[3]; ADARB1 mRNA
  ΔΔCT: 0.413
[3]; AFF1 mRNA
  ΔΔCT: −1.390
[3]; AK2 mRNA
  ΔΔCT: 0.686
[3]; AMPD3 mRNA
  ΔΔCT: −0.544
[3]; ANGPTL4 mRNA
  ΔΔCT: 1.668
[3]; ANXA4 mRNA
  ΔΔCT: 0.131
[3]; ARID68 mRNA
  ΔΔCT: 0.833
[3]; ASPH mRNA
  ΔΔCT: 0.771
[3]; BCL6 mRNA
  ΔΔCT: 0.937
[3]; CEBPB mRNA
  ΔΔCT: 2.638
[3]; CREB1 mRNA
  ΔΔCT: 0.483
[3]; CREB3L4 mRNA
  ΔΔCT: 0.129
[3]; DDIT4 mRNA
  ΔΔCT: 1.431
[3]; DUSP1 mRNA
  ΔΔCT: −0.153
[3]; EDN1 mRNA
  ΔΔCT: 6.595
[3]; EHD3 mRNA
  ΔΔCT: 0.055
[3]; FK8PS mRNA
  ΔΔCT: −0.333
[3]; FOSL2 mRNA
  ΔΔCT: 2.300
[3]; GDPD1 mRNA
  ΔΔCT: 0.711
[3]; GLUL mRNA
  ΔΔCT: 1.007
[3]; GOT1 mRNA
  ΔΔCT: 1.467
[3]; H6PD mRNA
  ΔΔCT: 0.935
[3]; HNRPLL mRNA
  ΔΔCT: 0.789
[3]; IL1RN mRNA
  ΔΔCT: −0.808
[3]; IL6R mRNA
  ΔΔCT: 0.885
[3]; IL10 mRNA
  ΔΔCT: −0.083
[3]; KLF13 mRNA
  ΔΔCT: 0.346
[3]; LOX mRNA
  ΔΔCT: −0.132
[3]; MT2A mRNA
  ΔΔCT: 1.656
[3]; NFKBIA mRNA
  ΔΔCT: 0.853
[3]; NR3C1 mRNA
  ΔΔCT: 0.952
[3]; PDCD7 mRNA
  ΔΔCT: 0.394
[3]; PDP1 mRNA
  ΔΔCT: 0.742
[3]; PER1 mRNA
  ΔΔCT: 2.230
[3]; PER2 mRNA
  ΔΔCT: 0.250
[3]; PLEKHF1 mRNA
  ΔΔCT: 1.075
[3]; POU2F2 mRNA
  ΔΔCT: 0.797
[3]; RA5A3 mRNA
  ΔΔCT: 1.543
[3]; RGS2 mRNA
  ΔΔCT: 0.772
[3]; SGK1 mRNA
  ΔΔCT: 0.848
[3]; SLC10A6 mRNA
  ΔΔCT: −1.725
[3]; SNTA1 mRNA
  ΔΔCT: 1.144
[3]; SPHK1 mRNA
  ΔΔCT: 2.618
[3]; SPSB1 mRNA
  ΔΔCT: 2.005
[3]; STAT5A mRNA
  ΔΔCT: 0.789
[3]; STAT5B mRNA
  ΔΔCT: 0.512
[3]; TBL1XR1 mRNA
  ΔΔCT: 0.794
[3]; TNF mRNA
  ΔΔCT: −0.598
[3]; TNFAIP3 mRNA
  ΔΔCT: 1.561
[3]; TSC22D3 mRNA
  ΔΔCT: −1.431
[3]; USP2 mRNA
  ΔΔCT: −0.661
[3]; USPS4 mRNA
  ΔΔCT: 0.491
[3]; VDR mRNA
  ΔΔCT: 1.247
[3]; VLDLR mRNA
  ΔΔCT: −1.862
[3]; ZFP36 mRNA
  ΔΔCT: 0.925
[3]; ZNF281 mRNA
  ΔΔCT: 0.371
[4]
  ΔΔCT, ADARB1: −0.516
  ΔΔCT, AFF1: −0.429
  ΔΔCT, AK2: −1.076
  ΔΔCT, AMPD3: −0.891
  ΔΔCT, ANGPTL4: −1.047
  ΔΔCT, ANXA4: −0.890
  ΔΔCT, ARID68: −0.131
  ΔΔCT, ASPH: −0.451
  ΔΔCT, ATF4: −0.279
  ΔΔCT, CEBPA: −0.301
  ΔΔCT, CREB1: −0.548
  ΔΔCT, CREB3: −0.560
  ΔΔCT, CREB3L4: −0.199
  ΔΔCT, CYB561: −0.720
  ΔΔCT, EHD3: −1.325
  ΔΔCT, FK8PS: −1.582
  ΔΔCT, GDPD1: −0.409
  ΔΔCT, GHRHR: 0.184
  ΔΔCT, GOT1: −0.402
  ΔΔCT, H6PD: 0.160
  ΔΔCT, HNRPLL: −0.286
  ΔΔCT, IL6R: −0.524
  ΔΔCT, IL10: −0.130
  ΔΔCT, KLF9: −0.821
  ΔΔCT, KLF13: −0.934
  ΔΔCT, MT2A: 0.129
  ΔΔCT, NR3C1: −0.427
  ΔΔCT, PDCD7: 0.403
  ΔΔCT, PER1: −0.786
  ΔΔCT, PER2: −1.101
  ΔΔCT, PIK3R1: −0.892
  ΔΔCT, PLEKHF1: −1.285
  ΔΔCT, POU2F1: −0.432
  ΔΔCT, RGS2: −0.372
  ΔΔCT, RHOB: 0.724
  ΔΔCT, SGK1: −0.346
  ΔΔCT, SLC10A6: −3.874
  ΔΔCT, SLC19A2: −0.995
  ΔΔCT, SLC22A5: −0.171
  ΔΔCT, SNTA1: −0.687
  ΔΔCT, SPSB1: 0.068
  ΔΔCT, STAT5B: −0.268
  ΔΔCT, TBL1XR1: −0.721
  ΔΔCT, TNFAIP3: 0.835
  ΔΔCT, TSC22D3: −2.169
  ΔΔCT, USP2: −1.681
  ΔΔCT, USPS4: −1.060
  ΔΔCT, ZFP36: −0.541
  ΔΔCT, ZHX3: −0.868
